Experimental data from PubChem BioAssay AID1963838 (Molecular Pharmacology Branch, DTP, NCI, 2024).

System: 855422-203-R-J1-PDC complex spheroid viability
Test: Anticancer human tumor 855422-203-R-J1-PDC patient-derived bladder carcinoma cell line growth inhibition [POLQ]
Details: for IC50: curve of first compound; for viability, T/C: stronger effect = lower value
Outline: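 PDC + HUVEC + MSC complex spheroids; POLQ inhibitors ± partner drugs; top conc. at/near clinical Cmax, else 10 microM (SN-38 1 microM), half-log dilutions; 37 degrees C, 5% CO2.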

[1] = second compound 0.0316 µM, first compound 0.0316 µM
[2] = second compound 0.0316 µM, first compound 0.1 µM
[3] = second compound 0.0316 µM, first compound 0.316 µM
[4] = second compound 0.0316 µM, first compound 1 µM
[5] = second compound 0.0316 µM, first compound 3.16 µM
[6] = second compound 0.0316 µM, first compound 10 µM
[7] = second compound 0.1 µM, first compound 0.0316 µM
[8] = second compound 0.1 µM, first compound 0.1 µM
[9] = second compound 0.1 µM, first compound 0.316 µM
[10] = second compound 0.1 µM, first compound 1 µM
[11] = second compound 0.1 µM, first compound 3.16 µM
[12] = second compound 0.1 µM, first compound 10 µM
[13] = second compound 0.316 µM, first compound 0.0316 µM
[14] = second compound 0.316 µM, first compound 0.1 µM
[15] = second compound 0.316 µM, first compound 0.316 µM
[16] = second compound 0.316 µM, first compound 1 µM
[17] = second compound 0.316 µM, first compound 3.16 µM
[18] = second compound 0.316 µM, first compound 10 µM
[19] = second compound 1 µM, first compound 0.0316 µM
[20] = second compound 1 µM, first compound 0.1 µM
[21] = second compound 1 µM, first compound 0.316 µM
[22] = second compound 1 µM, first compound 1 µM
[23] = second compound 1 µM, first compound 3.16 µM
[24] = second compound 1 µM, first compound 10 µM
[25] = second compound 3.16 µM, first compound 0.0316 µM
[26] = second compound 3.16 µM, first compound 0.1 µM
[27] = second compound 3.16 µM, first compound 0.316 µM
[28] = second compound 3.16 µM, first compound 1 µM
[29] = second compound 3.16 µM, first compound 3.16 µM
[30] = second compound 3.16 µM, first compound 10 µM
[31] = second compound 10 µM, first compound 0.0316 µM
[32] = second compound 10 µM, first compound 0.1 µM
[33] = second compound 10 µM, first compound 0.316 µM
[34] = second compound 10 µM, first compound 1 µM
[35] = second compound 10 µM, first compound 3.16 µM
[36] = second compound 10 µM, first compound 10 µM
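Further: spheroids exposed to compounds for seven days before readout.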

## COc1cccc2c1C(=O)c1c(O)c3c(c(O)c1C2=O)CC(O)(C(=O)CO)CC3OC1CC(N)C(O)C(C)O1 (stereo unspecified) + COC1C(OC(N)=O)C(O)C(Oc2ccc3c(O)c(NC(=O)c4ccc(O)c(CC=C(C)C)c4)c(=O)oc3c2C)OC1(C)C
Second compound 0.0316 µM
  IC50: < 31.6 nM
Second compound 0.1 µM
  IC50: < 31.6 nM
Second compound 0.316 µM
  IC50: < 31.6 nM
Second compound 1 µM
  IC50: < 31.6 nM
Second compound 3.16 µM
  IC50: < 31.6 nM
Second compound 10 µM
  IC50: < 31.6 nM
[1]
  viability, T/C: 12.4%
[2]
  viability, T/C: 11.1%
[3]
  viability, T/C: 1.99%
[4]
  viability, T/C: 0.29%
[5]
  viability, T/C: 0.38%
[6]
  viability, T/C: 1.85%
[7]
  viability, T/C: 15.1%
[8]
  viability, T/C: 10.9%
[9]
  viability, T/C: 3.53%
[10]
  viability, T/C: 0.21%
[11]
  viability, T/C: 0.32%
[12]
  viability, T/C: 1.27%
[13]
  viability, T/C: 14.5%
[14]
  viability, T/C: 10.1%
[15]
  viability, T/C: 1.84%
[16]
  viability, T/C: 0.63%
[17]
  viability, T/C: 0.37%
[18]
  viability, T/C: 1.74%
[19]
  viability, T/C: 18.5%
[20]
  viability, T/C: 10.4%
[21]
  viability, T/C: 2.23%
[22]
  viability, T/C: 0.32%
[23]
  viability, T/C: 0.3%
[24]
  viability, T/C: 2.92%
[25]
  viability, T/C: 15.4%
[26]
  viability, T/C: 10.4%
[27]
  viability, T/C: 2.63%
[28]
  viability, T/C: 0.31%
[29]
  viability, T/C: 0.58%
[30]
  viability, T/C: 1.48%
[31]
  viability, T/C: 16.2%
[32]
  viability, T/C: 9.82%
[33]
  viability, T/C: 2.61%
[34]
  viability, T/C: 0.29%
[35]
  viability, T/C: 0.47%
[36]
  viability, T/C: 1.58%

## O=C(c1cc(Cc2n[nH]c(=O)c3ccccc23)ccc1F)N1CCN(C(=O)C2CC2)CC1 + COC1C(OC(N)=O)C(O)C(Oc2ccc3c(O)c(NC(=O)c4ccc(O)c(CC=C(C)C)c4)c(=O)oc3c2C)OC1(C)C
Second compound 0.0316 µM
  IC50: > 10000 nM
Second compound 0.1 µM
  IC50: > 10000 nM
Second compound 0.316 µM
  IC50: > 10000 nM
Second compound 1 µM
  IC50: > 10000 nM
Second compound 3.16 µM
  IC50: > 10000 nM
Second compound 10 µM
  IC50: > 10000 nM
[1]
  viability, T/C: 107%
[2]
  viability, T/C: 107%
[3]
  viability, T/C: 122%
[4]
  viability, T/C: 90.8%
[5]
  viability, T/C: 95.6%
[6]
  viability, T/C: 78.8%
[7]
  viability, T/C: 93.3%
[8]
  viability, T/C: 111%
[9]
  viability, T/C: 109%
[10]
  viability, T/C: 104%
[11]
  viability, T/C: 93.8%
[12]
  viability, T/C: 83.7%
[13]
  viability, T/C: 95.9%
[14]
  viability, T/C: 105%
[15]
  viability, T/C: 102%
[16]
  viability, T/C: 114%
[17]
  viability, T/C: 101%
[18]
  viability, T/C: 67.2%
[19]
  viability, T/C: 108%
[20]
  viability, T/C: 101%
[21]
  viability, T/C: 95.5%
[22]
  viability, T/C: 118%
[23]
  viability, T/C: 95.8%
[24]
  viability, T/C: 66.9%
[25]
  viability, T/C: 111%
[26]
  viability, T/C: 90.8%
[27]
  viability, T/C: 106%
[28]
  viability, T/C: 105%
[29]
  viability, T/C: 91.2%
[30]
  viability, T/C: 68.1%
[31]
  viability, T/C: 104%
[32]
  viability, T/C: 111%
[33]
  viability, T/C: 106%
[34]
  viability, T/C: 96.7%
[35]
  viability, T/C: 103%
[36]
  viability, T/C: 60.2%

## O=c1[nH]cc(F)c(=O)[nH]1 + COC1C(OC(N)=O)C(O)C(Oc2ccc3c(O)c(NC(=O)c4ccc(O)c(CC=C(C)C)c4)c(=O)oc3c2C)OC1(C)C
Second compound 0.0316 µM
  IC50: 463 nM
Second compound 0.1 µM
  IC50: 403 nM
Second compound 0.316 µM
  IC50: 370 nM
Second compound 1 µM
  IC50: 489 nM
Second compound 3.16 µM
  IC50: 518 nM
Second compound 10 µM
  IC50: 431 nM
[1]
  viability, T/C: 101%
[2]
  viability, T/C: 119%
[3]
  viability, T/C: 59.9%
[4]
  viability, T/C: 40.1%
[5]
  viability, T/C: 25.9%
[6]
  viability, T/C: 23.6%
[7]
  viability, T/C: 107%
[8]
  viability, T/C: 107%
[9]
  viability, T/C: 55%
[10]
  viability, T/C: 34.5%
[11]
  viability, T/C: 28%
[12]
  viability, T/C: 22.3%
[13]
  viability, T/C: 107%
[14]
  viability, T/C: 114%
[15]
  viability, T/C: 53.5%
[16]
  viability, T/C: 35.1%
[17]
  viability, T/C: 26.3%
[18]
  viability, T/C: 23.6%
[19]
  viability, T/C: 118%
[20]
  viability, T/C: 100%
[21]
  viability, T/C: 59.2%
[22]
  viability, T/C: 34%
[23]
  viability, T/C: 26.7%
[24]
  viability, T/C: 21.5%
[25]
  viability, T/C: 98.8%
[26]
  viability, T/C: 93.4%
[27]
  viability, T/C: 58.4%
[28]
  viability, T/C: 37.5%
[29]
  viability, T/C: 28.2%
[30]
  viability, T/C: 22%
[31]
  viability, T/C: 117%
[32]
  viability, T/C: 101%
[33]
  viability, T/C: 54.7%
[34]
  viability, T/C: 35.3%
[35]
  viability, T/C: 26.2%
[36]
  viability, T/C: 23.4%
